Assay results taken from ChEMBL document CHEMBL1128057, “Aryl-fused sphingolipids as novel PKC inhibitors with topical antiinflammatory activity” (Bioorg Med Chem Lett, 1995).

How the values were obtained:
Protein kinase C (PKC) [1] = assay: Inhibitory concentration required against Protein kinase C (isolated from rat brain) in PKC assay performed with 4 ug phosphatidyl serine:diacylglycerol (2:1)
Protein kinase C (PKC) [2] = assay: Inhibition of Protein kinase C of rat brain using phosphatidyl serine: di-acyl glycerol (2:1)
Mus musculus = species: Mus musculus; assay: Anti-inflammatory activity on the mice ears using antiinflammatory assay (TPAEE); assay type: functional

IC50 (Protein kinase C (PKC) [1]) [µM] | IC50 (Protein kinase C (PKC) [2]) [µM] | Compound | ED50 (Mus musculus) [mg ear-1]
4.7 | – | CCCCCCCCCC#Cc1ccc([C@@H](O)[C@@H](N)CO)s1 | –
– | 15.2 | CCCCCCCCCCC#Cc1csc([C@@H](O)[C@@H](N)CO)n1 | –
10 | – | CCCCCCCCCc1ccc([C@@H](O)[C@@H](N)CO)s1 | –
9.7 | – | CCCCCCCCCC#Cc1cccc([C@@H](O)[C@@H](N)CO)c1 | –
4.5 | – | CCCCCCCCCCCCCCCCc1cccc([C@@H](O)[C@@H](N)CO)n1 | –
> 100 | – | CCCCCCCCc1cccc([C@@H](O)[C@@H](N)CO)n1 | –
– | 34.5 | CCCCCCCCCCC#Cc1cc([C@@H](O)[C@@H](N)CO)cs1 | –
– | 22.4 | CCCCCCCCCCCC(=O)c1csc([C@@H](O)[C@@H](N)CO)c1 | –
2.7 | 22.2 | CCCCCCCCCCC#Cc1cccc([C@@H](O)[C@@H](N)CO)c1 | 0.34
9.1 | – | CCCCCCCCCCCCc1cc([C@@H](O)[C@@H](N)CO)on1 | –
6.7 | 23.4 | CCCCCCCCCCCCC/C=C/[C@@H](O)[C@@H](N)CO [SPHINGOSINE] | 0.31

Second part, the compound before the results:

Compound | IC50 (Protein kinase C (PKC) [1]) [µM] | IC50 (Protein kinase C (PKC) [2]) [µM] | ED50 (Mus musculus) [mg ear-1]
CCCCCCCCCCc1cc([C@@H](O)[C@@H](N)CO)on1 | 43.9 | – | –
N[C@@H](CO)[C@H](O)c1ccc(C#CCCCCc2ccccc2)s1 | 36 | – | –
CCCCCCCCCCC#Cc1csc([C@@H](O)[C@@H](N)CO)c1 | 10.8 | 23.7 | 0.23
N[C@@H](CO)[C@H](O)c1cccc(C#CCCCCCc2ccccc2)n1 | 15.9 | – | –
CCCCCCCCCCc1cccc([C@@H](O)[C@@H](N)CO)n1 | 30.5 | – | –
CCCCCCCC#Cc1ccc([C@@H](O)[C@@H](N)CO)s1 | 19.9 | – | –
CCCCCCCCCCCCc1ccc([C@@H](O)[C@@H](N)CO)s1 | 14 | – | –
CCCCCCCCCCCCc1cccc([C@@H](O)[C@@H](N)CO)n1 | 10.9 | – | –
CCCCCCCCCCCC#Cc1ccc([C@@H](O)[C@@H](N)CO)s1 | 3.5 | – | –
CCCCCCCCCCC#Cc1ccc([C@@H](O)[C@@H](N)CO)s1 | 2.9 | 26.2 | 0.24
CCCCCCCCCCCC(=O)c1ccc([C@@H](O)[C@@H](N)CO)s1 | – | 22.4 | –
CCCCCCCCCCCc1cccc([C@@H](O)[C@@H](N)CO)n1 | 10 | – | –
CCCCCCCCCC#Cc1cccc([C@@H](O)[C@@H](N)CO)n1 | 10 | – | –
CCCCCCCCC#Cc1cccc([C@@H](O)[C@@H](N)CO)n1 | 13.3 | – | –
CCCCCCCCCCCCc1cccc([C@@H](O)[C@@H](N)CO)c1 | 3.7 | 17.3 | –
CCCCCCCCCCCOc1cccc([C@@H](O)[C@@H](N)CO)c1 | – | 24.1 | –
CCCCCCCCCCCC(=O)c1cccc([C@@H](O)[C@@H](N)CO)c1 | – | 20.7 | –
CCCCCCCCCCCCc1csc([C@@H](O)[C@@H](N)CO)c1 | – | 13.3 | –
CCCCCCCCCC/C=C/c1csc([C@@H](O)[C@@H](N)CO)c1 | 5 | – | –
